Positions of bridges follow the written chain, without caps; N, C: chain ends. Non-standard residues stand in square brackets, D forms with d. Residues, ends and D or L forms follow the SMILES beside them. hArg = N=C(N)NCCCC[C@H](N)C(=O)O; Mpa = O=C(O)CCS
How the values were obtained:
[1] = cited from earlier work
[2] = test system: whole blood; test: T-TAS AR chip occlusion of whole blood under shear; type: cell-based
Source text: (§1) Evaluation by T-TAS® using an AR chip. AR chips are characterized by a single channel containing collagen and tissue factor; they can be used to analyze clotting and platelet function.

[3] = test system: platelet rich plasma; test: T-TAS flow system occlusion of platelet rich plasma (collagen and tissue factor coated channel); type: cell-based; details: untreated 18.43
Source text: as §1

[4] = test system: platelets; test: Transmission light aggregometry, collagen-induced platelet aggregation in PRP; type: cell-based; details: collagen 10 µg/mL, all concentrations tested, FIG. 1
Source text: Plasma samples with platelet or thrombosomes or combination of both are loaded into cuvettes and placed into the aggregometry chambers. The chambers warm the sample and provide constant stirring. The initiation of aggregation can be done by multiple types of […] agents not limited to thrombin, ADP, collagen and any agent known to stimulate platelet aggregation. The samples can also have been taken as ex-vivo, or in-vitro supplemented with inhibitors. The instrument begins the assay by first recording the light transmission previous to stimulation for 2 minutes. The stimulant of interest is then introduced by the technician and the change in light transmission is recorded over time. The increase in light transmission corresponds to increase in platelet aggregation.
The aggregation of platelets (in platelet rich plasma) was evaluated using transmission light aggregometry. […] (FIG. 1).

[5] = test system: NOD/SCID mice; test: Tail-snip bleed model in clopidogrel-treated mice; type: in vivo, mouse; details: ~3 times the clinical dose of clopidogrel for 5 days; untreated 9 minutes
Method: The mouse was treated with clopidogrel for 5 days. The mouse was anesthetized, the tail end was snipped off followed by thrombosomes being immediately administered. The time from tail snip to tail stop bleeding was recorded by visual inspection.
NOD/SCID mice were treated with ~ 3 times the clinical dose of clopidogrel for 5 days then assessed in the tail-snip bleed model. The bleed time (min) was extended to 17.8 minutes with clopidogrel treatment verses untreated at 9 minutes (data not shown).

[6] = test system: thrombin; test: Thrombin generation in plasma; type: biochemical, human; details: PPP from patients taking baby aspirin daily; normal range about 66-166 nM; FIG. 18
Method: Reagent Preparation. For thrombin generation, the following materials were used from manufacturers, as follows: FluCa Kit (Diagnostica Stago, Cat. No. 86197), Thrombin calibrator (Diagnostica Stago, Cat. No. 86197), PRP Reagent (Diagnostica Stago, Cat. No. 86196), OCTOPLAS®, a solvent detergent treated human pooled plasma (Octapharma, Cat. No. 8-68209-952-04). All frozen reagents were thawed in a 37° C. water bath before use. All reagents were rehydrated with sterile water using the volume printed on the reagent labels. Approximately 2 min after rehydration, the reagents were mixed by inverting vials 5 times, so no chunks or powder left; vortexing was not used. […]
Sample Analysis - Plate preparation and testing. For experiments containing thrombosomes, a thrombosomes dilution series was generated (dilutions of 194.4 K, 64.8 K, 21.6 K, and 7.2 K per µL were typically used; cell counts are determined by flow cytometry) for each the experimental thrombosomes and the reference thrombosomes. […] The plate was then incubated in the Fluoroskan Ascent 96 well fluorescent plate reader (Thrombinoscope) (ThermoFisher Scientific) for 10 minutes. […] The plate fluorescence was monitored for 75 minutes at an interval of 20 seconds and a temperature of 40-41° C.
The effect of aspirin treatment (concentration) on thrombin generation was measured. […]

SMILES: N=C(N)NCCCC[C@@H]1NC(=O)CCSSC[C@@H](C(N)=O)NC(=O)[C@@H]2CCCN2C(=O)[C@H](Cc2c[nH]c3ccccc23)NC(=O)[C@H](CC(=O)O)NC(=O)CNC1=O [eptifibatide] ([Mpa][hArg]GDWPC-NH2; disulfide 1-7)
- blood concentration ([1]; IV 180 µg/kg bolus followed by 2 µg/kg/min continuous infusion, typical): 1000 to 2000 nM
- time for bleeding time to return to normal after drug stoppage ([1]; generally): ≤ 1 h
- occlusion time of whole blood on T-TAS AR Chip ([2]; 6 µM eptifibatide, untreated whole blood occluded at 8 minutes, FIG. 2): 16 min
- effect on occlusion time of whole blood on T-TAS AR Chip ([2]; eptifibatide at various concentrations): dose-dependent manner
- occlusion time of platelet rich plasma ([3]; 9 µM eptifibatide, FIGS. 10A, 10B): over 30 minutes
- collagen-induced platelet aggregation [4]: completely inhibited

SMILES: CCCCS(=O)(=O)N[C@@H](Cc1ccc(OCCCCC2CCNCC2)cc1)C(=O)O [tirofiban]
- occlusion time of platelet rich plasma ([3]; 100 ng/mL tirofiban, FIGS. 9A, 9B): no occlusion

SMILES: COC(=O)[C@H](c1ccccc1Cl)N1CCc2sccc2C1 [clopidogrel]
- bleed time [5]: 17.8 min

SMILES: CC(=O)Oc1ccccc1C(=O)O [aspirin]
- peak thrombin of aspirin plasma in absence of thrombosomes [6]: about 45 nM
